These results are taken from EP0373195B1, “COMPOSITION FOR INCREASING MELANIN CONTENT OF MELANOCYTES IN-VIVO AND IN-VITRO AND METHODS FOR THE IN-VITRO USE THEREOF” (TRUSTEES OF BOSTON UNIVERSITY, priority 1988, dated 1989).

For assay [1], the system named is human melanocytes. Put plainly: Dendricity (morphology) of cultured human melanocytes. Type of assay: cell-based. On the procedure:
In certain instances, phase contrast micrographs were taken using an inverted microscope after the cultures were washed once with phosphate buffered saline.
(§1) A first experimental series was performed which utilized human melanocytes combined with the preferred DAG, 1-oleoyl-2-acetyl-glycerol, selected for its efficiency of intercalating into melanocyte membranes. Neonatal foreskins obtained within two hours of elective circumcision were the source of human melanocytes. The epidermis was separated from the dermis after overnight incubation in 0.25% trypsin. Melanocytes were established in primary culture according to the procedure of Gilchrest et al. [J. Invest. Dermatol. 83:370-376 (1984)]. The preferred DAG was combined with human melanocytes in complete melanocyte medium and incubated together for a period of 6 days at 37°C.
(§2) A second experimental series was conducted in which the cultured human melanocytes were first pretreated with tetradecanoyl phorbol-13-acetate (hereinafter "TPA") at a concentration of 100 nM. Initially, the human melanocytes were obtained and grown as previously described. Subsequently, the cultured human melanocytes were combined with 100 nM of TPA in melanocyte medium and incubated at 37°C for 24 hours. The DAG was then added and the culture incubated again for 6 days. The melanin content of the cells was then evaluated in accordance with the procedure as previously described herein.

Assay [2] deals with S91 melanoma cells. Put plainly: Proliferation of S91 melanoma cells in culture. The format is cell-based, murine. The following applies: DMEM with 2% FBS, 37°C, 7 days. On the procedure: (§3) Melanocytes were seeded at 2 x 10⁴ cells per 35 mm dish and combined with KPGM supplemented with 2% FBS and 100 ug/ml of BHE, now designated as complete melanocyte medium. After 24 hours incubation at 37 C, the grown melanocyte cultures, in duplicate or triplicate, received one of the following: free complete melanocyte medium; or supplemented whole KDCM. Each melanocyte culture was then incubated for 6-7 days at 37 C. Subsequently, each melanocyte culture was harvested and the cell number per dish empirically determined. Each melanocyte culture was washed with a 0.4 mM EDTA in PBS; treated with 1 ml of a mixture containing 0.13% trypsin and 0.2 mM EDTA; then incubated approximately 10 minutes at 37 C; followed by addition of 1 ml of PBS. Subsequently, a 0.5 ml aliquot of each resulting suspension was diluted to 10 ml total volume using isotonic saline and processed using a particle counter (Model ZM, Colter Science).
(§4) This experimental series was performed to evaluate the effect of a DAG on melanocytes derived from animal sources, rather than humans. In this experimental series, murine S91 melanoma cells were grown and maintained in culture using conventional techniques [Friedmann and Gilchrest, J. Cell. Physiol. 133:88-94 (1987)]. […]

The subject of assay [3] is human melanocytes. Put plainly: Melanocyte bioassay: cell number / proliferation of cultured human melanocytes. The format is cell-based. Here is the method:
as §3, §1, §2

The test system of assay [4] is human melanocytes. Put plainly: Melanocyte bioassay: melanin content of cultured human melanocytes. Type of assay: cell-based. The following applies: for melanization / melanin content per human melanocyte (Fig. 3): DAG added after pretreatment with 100 nM TPA for 24 hours, then 6 days. On the procedure:
Melanocytes were seeded at 2 x 10^4 cells per 35 mm dish and combined with KPGM supplemented with 2% FBS and 100 ug/ml of BHE, now designated as complete melanocyte medium. After 24 hours incubation at 37 C, the grown melanocyte cultures, in duplicate or triplicate, received one of the following: free complete melanocyte medium; or supplemented whole KDCM. Each melanocyte culture was then incubated for 6-7 days at 37 C. Subsequently, each melanocyte culture was harvested and the cell number per dish empirically determined. Each melanocyte culture was washed with a 0.4 mM EDTA in PBS; treated with 1 ml of a mixture containing 0.13% trypsin and 0.2 mM EDTA; then incubated approximately 10 minutes at 37 C; followed by addition of 1 ml of PBS. Subsequently, a 0.5 ml aliquot of each resulting suspension was diluted to 10 ml total volume using isotonic saline and processed using a particle counter (Model ZM, Colter Science). To determine melanin content, the remaining suspension was centrifuged for 5 minutes in a microcentrifuge; the supernatant discarded; and the resulting cell pellet dissolved in 0.1 ml of a 1 M NaOH which was subsequently diluted with 0.4 ml of water. Melanin concentration was calculated by determination of optical density at 475 nanometers; and values extrapolated by comparison with a standard curve of determinations for synthetic melanin, a measurement of melanogenesis which correlates extremely well with 14C-DOPA incorporation and with tyrosinase activity [[…] and […]. Cell. Physiol. 133:88-94 (1987)]. Melanin values were expressed as total melanin per culture; or as melanin content per cell; or as percent of untreated controls. […] Neonatal foreskins obtained within two hours of elective circumcision were the source of human melanocytes. The epidermis was separated from the dermis after overnight incubation in 0.25% trypsin. Melanocytes were established in primary culture according to the procedure of […] et al. [J. Invest. Dermatol. 83:370-376 (1984)]. The preferred DAG was combined with human melanocytes in complete melanocyte medium and incubated together for a period of 6 days at 37°C. […] At an optimal concentration of 100 »M, this DAG produced an average of a 4 fold increase in cellular melanin content per cell over the untreated control. […] Initially, the human melanocytes were obtained and grown as previously described. Subsequently, the cultured human melanocytes were combined with 100 nM of TPA in melanocyte medium and incubated at 37°C for 24 hours. The DAG was then added and the culture incubated again for 6 days. The melanin content of the cells was then evaluated in accordance with the procedure as previously described herein. The results are graphically illustrated by Figs. 2 and 3 respectively.

Assay [5] relates to S91 melanoma cells. Put plainly: Melanin content of S91 melanoma cells in culture. Type of assay: cell-based, murine. As to conditions: DMEM with 2% FBS, 37°C, 7 days. On the procedure:
To determine melanin content, the remaining suspension was centrifuged for 5 minutes in a microcentrifuge; the supernatant discarded; and the resulting cell pellet dissolved in 0.1 ml of a 1 M NaOH which was subsequently diluted with 0.4 ml of water. Melanin concentration was calculated by determination of optical density at 475 nanometers; and values extrapolated by comparison with a standard curve of determinations for synthetic melanin, a measurement of melanogenesis which correlates extremely well with ¹⁴C-DOPA incorporation and with tyrosinase activity [Friedmann and Gilchrest, J. Cell. Physiol. 133:88-94 (1987)]. Melanin values were expressed as total melanin per culture; or as melanin content per cell; or as percent of untreated controls.
as §4, with “(1987)]. The grown S91 melanoma cells were then combined with 100 »M of the preferred DAG, 1-oleoyl-2-acetyl-glycerol; or with 100 »M of 3-isobutyl-1-methylxanthine (IBMX). Each chemical agent was combined with the S91 melanoma cells in Dulbecco's […] Eagle's Medium containing 2% FBS at 37°C for 7 days.” for “(1987)].”

The mark [6] stands for this setting: DAG added after pretreatment with 100 nM TPA for 24 hours, then 6 days.
Where [7] appears, read: agent alone (DAG 6 days; TPA 100 nM pretreatment).

Take `CCCCCCCC/C=C\CCCCCCCC(=O)OCC(CO)OC(C)=O` (stereo not shown) [1-oleoyl-2-acetyl-glycerol]: the induction of dendricity result with human melanocytes [1] (setting [6]) was “equally effective at melanization and the induction of dendricity”. Also, the “dendricity of human melanocytes” value with human melanocytes [1] (DAG alone, 6 days at 37°C) is listed as “did not increase the dendricity”. The “proliferation of S91 melanoma cells (Fig. 4)” value in the assay on S91 melanoma cells [2] (concentrations ranging from 1-200 uM) is reported as “effectively failed to induce proliferation”. Moreover, the “melanocyte proliferation or growth (Figs. 1a and 1b)” value in the assay on human melanocytes [3] (25 - 200 »M, 6 days at 37°C) is on record as “no meaningful effects on melanocyte proliferation or growth”. Also, the “human melanocyte proliferation (Fig. 2)” value in the assay on human melanocytes [3] (setting [6]) is listed as “neither the DAG analogue, nor the pretreatment with TPA, nor their combination has any substantial effect”; in the assay on human melanocytes [3] (setting [7]), “neither the DAG analogue, nor the pretreatment with TPA, nor their combination has any substantial effect”. The “melanization / melanin content per human melanocyte (Fig. 3)” value with human melanocytes [4] (listed as DAG) was “major and significant increases in melanin content per human melanocyte as a function of TPA pretreatment in amounts meaningfully greater than that of the chosen DAG analogue alone”; in the assay on human melanocytes [4] (listed as diacylglycerol), “equally effective at melanization”. Besides, in the assay with human melanocytes [4] (Homo sapiens, 144 h, optimal concentration of 100 »M, 6 days at 37°C in complete melanocyte medium, read-out: increase in cellular melanin content per cell over the untreated control), the fold induction at 100 µM is 4. Moreover, the “melanin content (Figs. 1a and 1b)” value in the assay with human melanocytes [4] (concentration levels 25 - 200 »M, 6 days at 37°C) was “clear dose dependent response to increased melanin content”. Besides, the melanization result with human melanocytes [4] (diacylglycerol alone, second experimental series, 6 days) is reported as “induced increased melanization”. The “melanin production in S91 melanoma cells in comparison to controls (Fig. 5)” value with S91 melanoma cells [5] (DAG) is “consistently failed to induce any substantial increases in melanin production”.
Take `CC(C)Cn1c(=O)n(C)c(=O)c2[nH]cnc21` [IBMX, 3-isobutyl-1-methylxanthine, reference compound]: the “proliferation / cellular growth of S91 melanoma cells (Fig. 4)” value with S91 melanoma cells [2] (100 »M) is reported as “failed to produce any cellular growth”. Moreover, in the assay on S91 melanoma cells [5] (100 »M), the “melanin production in S91 melanoma cells (Fig. 5)” value was “caused a major increase in melanin production”.
Consider “tetradecanoyl phorbol-13-acetate [TPA, reference compound]”, for which the dendricity entry in the assay with human melanocytes [1] (TPA alone, 100 nM) is “induced extreme dendricity”. Also, the “human melanocyte proliferation (Fig. 2)” value in the assay on human melanocytes [3] (setting [7]) is on record as “neither the DAG analogue, nor the pretreatment with TPA, nor their combination has any substantial effect”.
